Assay [1] concerns rat FCA 96 hr paw model of inflammatory pain (heat hyperalgesia). Briefly: Heat hyperalgesia (Plantar Test) in rat FCA 96 hr paw model of inflammatory pain. It is filed as in vivo. The conditions noted are these: oral dosing 0.3-1-3-10-20 μmol/kg, 96 h after FCA. On the procedure:
(§1) One of the compounds of the present invention was evaluated in an in vivo model of inflammatory pain.
(§2) Male Sprague-Dawley rats (Charles River, St-Constant, Qc, CAN) weighing 200-225 g were utilized for the animal experiment studies. The animals were group-housed in polycarbonate, ventilated cages (filter top) in a controlled environment room (12-h light/dark cycle, 20.5-23.5° C., relative humidity: 40-70%) with food (14% Protein Rodent Maintenance Diet, Harlan Teklad, Madisson, WI, USA) and water ad libidum.
(§3) Inflammation was induced by injection of a single 40 μl Freund's complete adjuvant (FCA) intra-plantar injection into the rat's left hindpaw. All experiments were conducted 96 h after FCA administration. […]
Heat hyperalgesia (Plantar Test) was assessed using a Paw Thermal Stimulator to apply a controlled heat to the plantar surface of the affected paw. […] The heat source and timer were then turned on simultaneously; when the animal withdrew the hind paw the number of seconds was recorded. […]
(§4) Satellite animals were used to monitor the free plasma concentration of example 15 at the doses and time points used in the nociceptive tests. Free plasma EC50 values in behavioral studies were determined from 4-point concentration-response curves using non-linear regression and a sigmoidal variable slope logistic model (Prism 4.03, GraphPad Software Inc., USA).

In assay [2] the test system is rat FCA 96 hr paw model of inflammatory pain (mechanical hyperalgesia). Briefly: Mechanical hyperalgesia (Ugo Basile analgesy meter) in rat FCA 96 hr paw model of inflammatory pain. It is filed as in vivo. The conditions noted are these: oral dosing 0.3-1-3-10-20 μmol/kg, 96 h after FCA. On the procedure: as §1, §2, §3
Mechanical hyperalgesia was assessed using the Ugo Basile analgesy meter (Ugo Basile, Comerio, Italy). […] The pressure required to elicit paw withdrawal was determined. […] Paw withdrawal thresholds were calculated as the mean of the two values. […]
as §4

Experimental findings from patent US20230406851A1, “IMIDAZOPYRIDINE COMPOUNDS AND USES THEREOF” (priority 2022, published 2023) are described below.

Molecules are shown by their SMILES.

With `CNC(=O)c1cc(F)c(-c2nc3cc(C)ccn3c2C[C@H]2CN(C(=O)OC)CCO2)c(F)c1` [Example 15, (S)-methyl-2-((2-(2,6-difluoro-4-(methylcarbamoyl)phenyl)-7-methylimidazo[1,2-a]pyridin-3-yl)methyl)morpholine-4-carboxylate], the “reversal of heat hyperalgesia” value in assay [1] is listed as “free plasma concentration dependent reversal”. The EC50 stood at 18 nM in assay [1] (free plasma concentration, read-out: potency (EC50 free plasma concentration) in reversing heat hyperalgesia) and 87 nM in assay [2] (free plasma concentration, read-out: potency (EC50 free plasma concentration) in reversing mechanical hyperalgesia). In assay [2], the “reversal of mechanical hyperalgesia” value was “free plasma concentration dependent reversal”.
